Test results: ChEMBL document CHEMBL4382204 (Eur J Med Chem, 2018)

Experiments:
[1] = Antiproliferative activity in mouse BAF3 cells after 72 hrs by CCK8 assay; format: cell-based
[2] = target: Bcr/Abl fusion protein (Homo sapiens) (UniProt P00519+P11274); details: BaF3
Description: Inhibition of wild type BCR/ABL (unknown origin) transfected in mouse BAF3 cells assessed as growth inhibition after 72 hrs by CCK8 assay

[3] = tested on: Bcr/Abl fusion protein (Homo sapiens), P00519+P11274 [T315I]; details: BaF3
K562 = assay: Antiproliferative activity in human K562 cells after 72 hrs by CCK8 assay; format: functional; details: K562, 72 h
KU812 cell line = assay: Antiproliferative activity in human KU812 cells after 72 hrs by CCK8 assay; format: functional; details: KU812, 72 h
MEG-01 = assay: Antiproliferative activity in human MEG01 cells after 72 hrs by CCK8 assay; format: functional; details: MEG-01, 72 h
MEC1 = assay: Antiproliferative activity in human MEC1 cells after 72 hrs by CCK8 assay; format: functional; details: MEC1, 72 h
HL-60 = assay: Antiproliferative activity in human HL60 cells after 72 hrs by CCK8 assay; format: functional; details: HL-60, 72 h
OCI-AML2 = assay: Antiproliferative activity in human OCI-AML2 cells after 72 hrs by CCK8 assay; format: functional; details: OCI-AML2, 72 h
U-937 = assay: Antiproliferative activity in human U937 cells after 72 hrs by CCK8 assay; format: functional; details: U-937, 72 h
[4] = Antiproliferative activity in CHO cells after 72 hrs by CCK8 assay; format: cell-based, Cricetulus griseus; details: chinese hamster
[5] = Selectivity ratio of GI50 for mouse BAF3 cells to GI50 for BCR/ABL T315I mutant (unknown origin) transfected in mouse BAF3 cells
[6] = Selectivity ratio of GI50 for mouse BAF3 cells to GI50 for wild type BCR/ABL (unknown origin) transfected in mouse BAF3 cells
BaF3 = assay: Antitumor activity against mouse BAF3 cells expressing BCR/ABL T315I mutant allografted in nu/nu mouse assessed as tumor weight at 100 mg/kg, po administered via gavage measured for 14 days (reference value: 2.78 g); format: functional

Bcr/Abl fusion protein (Homo sapiens), sequence (P00519 whole entry, looked up, the tested form may be a part): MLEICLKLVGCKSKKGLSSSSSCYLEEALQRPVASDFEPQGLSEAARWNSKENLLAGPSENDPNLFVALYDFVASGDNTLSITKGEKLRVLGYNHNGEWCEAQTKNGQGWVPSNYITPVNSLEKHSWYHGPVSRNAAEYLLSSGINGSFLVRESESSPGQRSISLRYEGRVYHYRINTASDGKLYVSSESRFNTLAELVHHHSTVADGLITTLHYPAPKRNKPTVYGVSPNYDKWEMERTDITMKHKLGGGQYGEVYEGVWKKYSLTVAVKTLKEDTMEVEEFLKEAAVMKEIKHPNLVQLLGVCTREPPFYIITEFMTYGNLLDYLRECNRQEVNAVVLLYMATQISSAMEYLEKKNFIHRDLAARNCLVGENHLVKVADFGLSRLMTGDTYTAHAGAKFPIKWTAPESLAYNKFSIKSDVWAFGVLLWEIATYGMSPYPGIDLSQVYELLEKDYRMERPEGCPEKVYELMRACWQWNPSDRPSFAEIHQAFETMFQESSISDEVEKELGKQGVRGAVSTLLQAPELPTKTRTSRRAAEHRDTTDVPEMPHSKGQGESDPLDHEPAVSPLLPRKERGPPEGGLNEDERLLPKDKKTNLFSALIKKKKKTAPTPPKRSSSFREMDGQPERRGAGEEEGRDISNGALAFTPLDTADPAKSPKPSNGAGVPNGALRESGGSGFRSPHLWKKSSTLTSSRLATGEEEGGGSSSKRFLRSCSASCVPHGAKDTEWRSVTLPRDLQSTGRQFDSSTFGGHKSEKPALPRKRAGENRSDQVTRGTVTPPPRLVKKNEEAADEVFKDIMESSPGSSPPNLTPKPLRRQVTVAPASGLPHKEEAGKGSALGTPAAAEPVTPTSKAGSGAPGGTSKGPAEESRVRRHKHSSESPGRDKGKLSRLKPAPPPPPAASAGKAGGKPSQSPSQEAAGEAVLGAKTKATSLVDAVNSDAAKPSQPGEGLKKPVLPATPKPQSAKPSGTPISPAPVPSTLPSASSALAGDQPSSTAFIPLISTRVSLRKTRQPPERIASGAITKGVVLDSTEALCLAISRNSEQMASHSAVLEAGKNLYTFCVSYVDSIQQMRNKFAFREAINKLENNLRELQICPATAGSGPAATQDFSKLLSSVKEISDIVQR
Bcr/Abl fusion protein (Homo sapiens), sequence (P11274 whole entry, looked up, the tested form may be a part): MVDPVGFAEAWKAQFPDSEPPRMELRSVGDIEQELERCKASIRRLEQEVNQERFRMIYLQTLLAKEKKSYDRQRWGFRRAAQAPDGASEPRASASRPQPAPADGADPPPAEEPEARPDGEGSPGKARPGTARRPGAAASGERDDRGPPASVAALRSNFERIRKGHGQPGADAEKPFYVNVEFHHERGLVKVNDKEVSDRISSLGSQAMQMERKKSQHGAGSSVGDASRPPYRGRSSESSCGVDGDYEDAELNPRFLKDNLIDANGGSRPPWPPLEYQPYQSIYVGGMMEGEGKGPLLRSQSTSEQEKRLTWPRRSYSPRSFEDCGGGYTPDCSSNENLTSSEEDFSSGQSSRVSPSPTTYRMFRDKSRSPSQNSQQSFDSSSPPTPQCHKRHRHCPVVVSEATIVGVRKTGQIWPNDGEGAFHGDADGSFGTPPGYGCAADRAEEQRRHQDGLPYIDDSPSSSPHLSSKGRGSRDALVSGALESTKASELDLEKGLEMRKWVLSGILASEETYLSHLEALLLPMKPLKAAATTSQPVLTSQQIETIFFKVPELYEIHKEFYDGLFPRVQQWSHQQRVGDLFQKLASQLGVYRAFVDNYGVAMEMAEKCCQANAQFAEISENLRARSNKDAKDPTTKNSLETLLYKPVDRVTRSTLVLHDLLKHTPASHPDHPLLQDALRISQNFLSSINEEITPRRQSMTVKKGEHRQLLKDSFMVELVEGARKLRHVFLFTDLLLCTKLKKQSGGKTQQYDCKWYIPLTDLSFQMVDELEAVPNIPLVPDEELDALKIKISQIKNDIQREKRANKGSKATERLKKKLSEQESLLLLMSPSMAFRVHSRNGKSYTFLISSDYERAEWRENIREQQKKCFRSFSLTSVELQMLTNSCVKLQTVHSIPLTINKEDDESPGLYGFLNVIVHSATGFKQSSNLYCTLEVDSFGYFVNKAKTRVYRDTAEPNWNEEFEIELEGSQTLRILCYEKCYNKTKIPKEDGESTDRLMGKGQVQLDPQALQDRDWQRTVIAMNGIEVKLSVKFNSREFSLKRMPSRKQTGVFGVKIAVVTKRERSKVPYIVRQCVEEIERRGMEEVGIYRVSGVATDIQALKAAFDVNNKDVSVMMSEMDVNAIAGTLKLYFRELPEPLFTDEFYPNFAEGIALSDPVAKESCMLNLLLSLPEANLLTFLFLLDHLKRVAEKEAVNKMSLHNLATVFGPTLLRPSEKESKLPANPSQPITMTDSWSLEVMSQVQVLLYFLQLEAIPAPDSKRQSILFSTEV

Row | GI50 [2] | GI50 [3] | SMILES | GI50 at 72 h [1] | further results
1 | 3150 nM | 4030 nM | Cc1cccc(NC(=O)CCSc2ccc3c(/C=C/c4ccccn4)n[nH]c3c2)c1 | > 10000 nM | –
2 | 9670 nM | 5520 nM | CN(C)c1cccc(NC(=O)CCSc2ccc3c(/C=C/c4ccccn4)n[nH]c3c2)c1 | > 10000 nM | –
3 | 8240 nM | 8180 nM | CN1CCN(c2cccc(NC(=O)CCSc3ccc4c(/C=C/c5ccccn5)n[nH]c4c3)c2)CC1 | > 10000 nM | –
4 | 32 nM | 110 nM | CN1CCN(Cc2ccc(NC(=O)CCSc3ccc4c(-c5ccccc5)n[nH]c4c3)cc2C(F)(F)F)CC1 | 600 nM | –
5 | 22 nM | 330 nM | CN1CCN(Cc2ccc(C(=O)NCCCSc3ccc4c(/C=C/c5ccccn5)n[nH]c4c3)cc2C(F)(F)F)CC1 | 4400 nM | –
6 | 2720 nM | 1620 nM | O=C(NCCSc1ccc2c(/C=C/c3ccccn3)n[nH]c2c1)c1cccc(C(F)(F)F)c1 | 1500 nM | –
7 | 2870 nM | 4490 nM | Cc1ccc(NC(=O)CCSc2ccc3c(/C=C/c4ccccn4)n[nH]c3c2)cc1 | > 10000 nM | –
8 | 15 nM | 20 nM | CN1CCN(Cc2ccc(NC(=O)CCSc3ccc4c(-c5cnn(C)c5)n[nH]c4c3)cc2C(F)(F)F)CC1 | 1400 nM | –
9 | 38 nM | 18 nM | CN1CCN(Cc2ccc(NC(=O)CCSc3ccc4c(-c5ccncc5)n[nH]c4c3)cc2C(F)(F)F)CC1 | 1060 nM | –
10 | 500 nM | 650 nM | O=C(NCCCSc1ccc2c(/C=C/c3ccccn3)n[nH]c2c1)c1cccc(C(F)(F)F)c1 | 980 nM | –
11 | 150 nM | 120 nM | O=C(CCSc1ccc2c(/C=C/c3ccccn3)n[nH]c2c1)Nc1ccc(CN2CCCC2)c(C(F)(F)F)c1 | 4000 nM | –
12 | 2740 nM | 2060 nM | O=C(NCCSc1ccc2c(/C=C/c3ccccn3)n[nH]c2c1)Nc1cccc(C(F)(F)F)c1 | 3000 nM | –
13 | 180 nM | 240 nM | CN1CCN(Cc2ccc(NC(=O)NCCSc3ccc4c(/C=C/c5ccccn5)n[nH]c4c3)cc2C(F)(F)F)CC1 | 3100 nM | –
14 | 900 nM | 280 nM | O=C(CCSc1ccc2c(/C=C/c3ccccn3)n[nH]c2c1)Nc1cccc(C(F)(F)F)c1 | 2300 nM | –
15 | 160 nM | 88 nM | Cc1ccc(NC(=O)CCSc2ccc3c(/C=C/c4ccccn4)n[nH]c3c2)cc1C(F)(F)F | 530 nM | –

More lines, now with the values behind:

Row | SMILES | GI50 [2] | GI50 [3] | GI50 at 72 h [1] | further results
16 | COc1ccc(NC(=O)CCSc2ccc3c(/C=C/c4ccccn4)n[nH]c3c2)cc1C(F)(F)F | 590 nM | 860 nM | > 10000 nM | –
17 | O=C(CCSc1ccc2c(/C=C/c3ccccn3)n[nH]c2c1)Nc1cccc(Cl)c1 | 1560 nM | 2910 nM | 9350 nM | –
18 | CN(C)CCN(C)Cc1ccc(NC(=O)CCSc2ccc3c(/C=C/c4ccccn4)n[nH]c3c2)cc1C(F)(F)F | 110 nM | 110 nM | 1850 nM | –
19 | O=C(CCSc1ccc2c(/C=C/c3ccccn3)n[nH]c2c1)NCc1cccc(C(F)(F)F)c1 | 3390 nM | 7050 nM | 8030 nM | –
20 | O=C(CCSc1ccc2c(/C=C/c3ccccn3)n[nH]c2c1)Nc1ccc(F)c(C(F)(F)F)c1 | 300 nM | 120 nM | 610 nM | –
21 | CNC(=O)c1ccccc1Sc1ccc2c(/C=C/c3ccccn3)n[nH]c2c1 [AXITINIB] | – | – | 1640 nM | GI50 (K562): 940 nM; GI50 (KU812 cell line): 500 nM; GI50 (MEG-01): 970 nM; GI50 (MEC1): 1540 nM; GI50 (HL-60): 6780 nM; GI50 (OCI-AML2): 2360 nM; GI50 (U-937): 1980 nM; GI50 at 72 h [4]: > 10000 nM
22 | O=C(CCSc1ccc2c(/C=C/c3ccccn3)n[nH]c2c1)Nc1ccc(CN2CCOCC2)c(C(F)(F)F)c1 | 160 nM | 210 nM | 3970 nM | –
23 | O=C(CCSc1ccc2c(/C=C/c3ccccn3)n[nH]c2c1)Nc1cccc(F)c1 | 1510 nM | 1990 nM | 6590 nM | –
24 | O=C(CCSc1ccc2c(/C=C/c3ccccn3)n[nH]c2c1)Nc1ccccc1 | 500 nM | 510 nM | 690 nM | –
25 | Cc1ccc(-c2n[nH]c3cc(SCCC(=O)Nc4ccc(CN5CCN(C)CC5)c(C(F)(F)F)c4)ccc23)cn1 | 91 nM | 49 nM | 1180 nM | –
26 | COc1cccc(NC(=O)CCSc2ccc3c(/C=C/c4ccccn4)n[nH]c3c2)c1 | 3220 nM | 3210 nM | 3840 nM | –
27 | CCN1CCN(Cc2ccc(NC(=O)CCSc3ccc4c(/C=C/c5ccccn5)n[nH]c4c3)cc2C(F)(F)F)CC1 | 4 nM | 4 nM | 840 nM | RatioGI50 [5]: 200; RatioGI50 [6]: 200
28 | CC1CCN(Cc2ccc(NC(=O)CCSc3ccc4c(/C=C/c5ccccn5)n[nH]c4c3)cc2C(F)(F)F)CC1 | 1980 nM | 1750 nM | 4170 nM | –
29 | CN1CCN(Cc2ccc(C(=O)NCCSc3ccc4c(/C=C/c5ccccn5)n[nH]c4c3)cc2C(F)(F)F)CC1 | 750 nM | 930 nM | 4800 nM | –
30 | CNC(=O)CCSc1ccc2c(/C=C/c3ccccn3)n[nH]c2c1 | > 10000 nM | > 10000 nM | > 10000 nM | –
31 | CN1CCN(Cc2ccc(NC(=O)CCSc3ccc4c(-c5cccnc5)n[nH]c4c3)cc2C(F)(F)F)CC1 | 70 nM | 58 nM | 2650 nM | –
32 | Cc1ccc(NC(=O)c2ccc(CN3CCN(C)CC3)cc2)cc1Nc1nccc(-c2cccnc2)n1 [IMATINIB] | – | – | > 10000 nM | GI50 (K562): 250 nM; GI50 (KU812 cell line): 310 nM; GI50 (MEG-01): 280 nM; GI50 (MEC1): > 10000 nM; GI50 (HL-60): > 10000 nM; GI50 (OCI-AML2): > 10000 nM; GI50 (U-937): > 10000 nM; GI50 at 72 h [4]: > 10000 nM; Activity (BaF3): 3.36 g
33 | Cc1n[nH]c2cc(SCCC(=O)Nc3ccc(CN4CCN(C)CC4)c(C(F)(F)F)c3)ccc12 | 330 nM | 170 nM | 3900 nM | –
34 | O=C(CCSc1ccc2c(/C=C/c3ccccn3)n[nH]c2c1)Nc1ccc(Cl)c(C(F)(F)F)c1 | 2710 nM | 2670 nM | > 10000 nM | –
